According to patent publication US20080057010A1, “METHOD FOR SKIN CARE” (NULIV SCIENCE LTD., priority 2006, published 2008):

system: MMP-1; test: Quantitative analysis of MMP-1 transcripts in HDF cells (qRT-PCR); format: cell-based, human; details: 0.1 μM, MMP-1 mRNA relative to 0 = 1.00
Description: Relative levels of MMP-1 expression in HDF cells were determined by qRT-PCR. Preparation of total RNA and cDNA were carried out as described in previous sections. qRT-PCR was performed using the Applied Biosystem 7300 system and pre-developed Taqman Gene Expression Assays (Applied Biosystems, Foster City, Calif., USA). The reaction was performed as described in previous sections except that primer mix for human MMP-1 (assay ID HS00233958_m1, Applied Biosystems) and GAPDH (assay ID Hs99999905_m1, Applied Biosystems) were used.
Results shown in Tables 6A and 6B represent the quantitated data from zymography analysis of MMP-2 protein in HaCaT cells and qRT-PCR for MMP-1 in HDF cells. The concentrations used were 0, 0.01. 0.1, 1 μM (if not indicated otherwise) for pure compounds; and were 0, 1, 10, 40 μg/mL for crude extract (if not indicated otherwise). The cells were treated with the indicated compounds for 24 h before harvested for analysis of Pro-MMP-2 or activated MMP-2 in whole cell extract. Fifty micrograms of the cell extract samples were used for electrophoresis.

Row | Compound | MMP-1 Q-PCR
1 | CC(=O)O[C@@H]1[C@@H](O)[C@H](O[C@H]2CC[C@]34C[C@]35CC[C@]3(C)[C@@H]([C@@]6(C)CC[C@@H](C(C)(C)O)O6)[C@@H](O)C[C@@]3(C)[C@@H]5C[C@H](O[C@@H]3O[C@H](CO)[C@@H](O)[C@H](O)[C@H]3O)[C@H]4C2(C)C)OC[C@H]1O [isoAS2, isoastragaloside II] | 0.71
2 | astragaloside I [AS1] | 0.75
3 | CC(=O)O[C@H]1[C@H](O[C@H]2CC[C@]34C[C@]35CC[C@]3(C)[C@@H]([C@@]6(C)CC[C@@H](C(C)(C)O)O6)[C@@H](O)C[C@@]3(C)[C@@H]5C[C@H](O[C@@H]3O[C@H](CO)[C@@H](O)[C@H](O)[C@H]3O)[C@H]4C2(C)C)OC[C@@H](OC(C)=O)[C@@H]1O [isoAS1, isoastragaloside I] | 0.6
4 | CC(=O)O[C@H]1[C@H](O[C@H]2CC[C@]34C[C@]35CC[C@]3(C)[C@@H]([C@@]6(C)CC[C@@H](C(C)(C)O)O6)[C@@H](O)C[C@@]3(C)[C@@H]5C[C@H](O[C@@H]3O[C@H](CO)[C@@H](O)[C@H](O)[C@H]3O)[C@H]4C2(C)C)OC[C@@H](O)[C@@H]1O [AS2, astragaloside II] | 0.25
